{
  "source": "patent US20230226228A1",
  "about": "“POSITRON IMAGING TOMOGRAPHY IMAGING AGENT COMPOSITION AND METHOD FOR DETECTION OF BACTERIAL INFECTION” (priority 2020, published 2023)",
  "key": {"DHPS": {"target": "DHPS (Staphylococcus aureus, UniProt O05701)", "sequence (O05701 whole entry)": "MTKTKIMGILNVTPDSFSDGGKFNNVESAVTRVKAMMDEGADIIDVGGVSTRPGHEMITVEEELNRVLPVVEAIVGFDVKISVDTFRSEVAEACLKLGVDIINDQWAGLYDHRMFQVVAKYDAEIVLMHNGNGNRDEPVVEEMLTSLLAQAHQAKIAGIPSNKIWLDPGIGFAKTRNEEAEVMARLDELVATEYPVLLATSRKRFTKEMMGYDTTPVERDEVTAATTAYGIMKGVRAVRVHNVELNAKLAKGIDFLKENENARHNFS", "experiment": "HPPK-DHPS-DHFR coupled assay", "format": "biochemical", "conditions": "concentration of 80 μM"}, "S. aureus NfsB": {"test_system": "S. aureus NfsB", "format": "biochemical", "conditions": "NADH 40 μM, substrate varied, Michaelis-Menten fit"}, "S. aureus Xen29 [1]": {"test_system": "S. aureus Xen29", "experiment": "Rescue of sulfamethoxazole antibacterial effect (MIC, microbroth dilution in M9 media)", "format": "cell-based", "method": "FIG. 13. Impact of PABA analogues on the antibacterial activity of sulfamethoxazole (SMX).\nAntibacterial susceptibility tests for aerobically growing bacteria were performed with a modified microbroth dilution assay according to the Clinical and Laboratory Standard Institute in transparent 96-well plates (CLSI. 2006). S. aureus Xen29 (PerkinElmer) were utilized in this study. Briefly, bacteria were grown to mid log phase (OD600 of 0.6-0.7) in cation-adjusted Mueller-Hinton (CAMH) media at 37° C. in an orbital shaker. Subsequently, bacteria were resuspended in the M9 media. A final concentration of 10^6 CFU/mL per well was added to M9 media (1% glucose, 1% casamino acids, 1 mM thiamine, 0.05 mM nicotinamide, 2 mM MgCl2, 0.1 mM CaCl2) containing 2-fold dilutions of SMX to give final concentrations ranging from 0.05 to 100 μg/mL either alone or in the presence of PABA (0.8 μg/mL and 4 μg/mL), F-PABA (0.8 μg/mL and 4 μg/mL), F-NB (10 μg/mL, 20 μg/mL and 40 μg/mL), or F-NAP (10 μg/mL, 20 μg/mL and 40 μg/mL). The plate was examined for bacteria growth using a UV-vis plate reader after 24 h incubation at 37° C. The MIC was recorded as the lowest SMX concentration (μM) required to inhibit at least 90% of bacterial growth as judged by the absorbance of the culture media."}, "S. aureus Newman [2]": {"test_system": "S. aureus Newman", "experiment": "PET/CT imaging of rat triceps infection / sterile inflammation model (S. aureus Newman)", "format": "in vivo, Sprague-Dawley rats", "conditions": "60-80 min after tracer injection", "method": "FIG. 3. PET/CT imaging of a rat model of S. aureus Newman-induced triceps infection. (A) [^18F]FDG PET/CT of a rat in which 8.2±0.2 log10 CFU of S. aureus Newman has been injected into the right triceps (red arrow) and with sterile inflammation in the left triceps (yellow arrow). The image was acquired 60-80 min after tracer injection. (B) Comparison of [18F]FDG accumulation 60-80 min postinjection at sites of infection and sterile inflammation, represented as % injected dose per cc (% ID/cc). […] (D) Comparison of 2-[^18F]F-ENB accumulation in the infected triceps and inflamed triceps 180-200 min after tracer injection: ***P<0.001 from a two-tailed Mann-Whitney U Test (n=7). (E) Ex vivo PET imaging of the excised infected triceps. The area of infection is highlighted in yellow. […]\n(§1) S. aureus (Newman or Xen29) was cultured overnight by inoculating 5 μL of bacteria from a glycerol stock into 10 mL of fresh cation-adjusted Mueller-Hinton (CAMH) broth or tryptic soy broth (TSB). […] After imaging, the infected triceps were collected, homogenized in PBS using a hand-held homogenizer, and the bacterial burden at the time of imaging was determined by plating the muscle tissues onto solid MH medium. After overnight incubation at 37° C., CFUs were quantified by enumeration. […]"}, "bacterial cells": {"test_system": "bacterial cells", "experiment": "MIC / toxicity of F-PABA", "format": "cell-based"}, "S. aureus Xen29 [3]": {"test_system": "S. aureus Xen29", "experiment": "PET/CT imaging of rat triceps infection / sterile inflammation model (S. aureus Xen29)", "format": "in vivo, Sprague-Dawley rats", "method": "FIG. 5. PET/CT imaging of rats infected in the right triceps with the bioluminescent Xen29 strain of S. aureus. (A) Experimental design. (B) 2-[^18F]F-ENB-derived radioactivity accumulates in the infected triceps (red arrow) but not the inflamed triceps (yellow arrow) at 3 h post tracer administration.\nFIG. 8. PET/CT imaging of 2-[^18F]F-NB in a rat model of S. aureus Xen29 infection. (A) Radiosynthesis of 2-[^18F]F-NB. (i) [^18F]potassium fluoride, Kryptofix222, potassium carbonate, dimethyl sulfoxide, r.t., 10 min; (ii) 2 M potassium hydroxide in H2O, 105° C., 10 min; Overall decay-corrected radiochemical yield: 26% (n=1).\nFIG. 10. Time activity curve (TAC) in infected triceps, inflamed triceps and blood and biodistribution of 2-[^18F]F-NB in major organs. (a) The right triceps of the rats were infected with S. aureus Xen 29 and the left triceps were injected with a 10-fold higher burden of heat-killed S. aureus to induce sterile inflammation. The rats were scanned by PET/CT for 120 min (rats with sterile inflammation in the left triceps) immediately starting from tracer administration. The PET scan was separated into ten frames (1-min) and twenty-two frames (5-min). TACs of infected triceps (blue), inflamed triceps (grey) and blood (left heart ventricle, red) are shown. Data represented as mean with standard error of the mean (n=4). (b) Time-dependent accumulation of 2-[^18F]F-NB in infected and inflamed triceps compared to the blood (left heart ventricle). Data are presented as the mean and standard error of the mean (n=4). […]\nas §1"}, "S. aureus Newman [4]": {"test_system": "S. aureus Newman", "experiment": "In vitro cellular uptake of radiotracer", "format": "cell-based", "conditions": "1 μCi/mL, 120 min incubation, versus heat killed bacteria", "method": "(§2) FIG. 12. In vitro 2-[^18F]F-NB uptake by S. aureus Newman and Xen29. 1 μCi of 2-[^18F]F-NB was incubated in a 1 mL culture of S. aureus Newman (green bars) or S. aureus Xen29 (blue bars) for 5, 30, 60, 90 and 120 min.\n(§3) S. aureus Newman and S. aureus Xen29 were aerobically grown to OD600 0.6 in LB media at 37° C. To evaluate the uptake of 2-[^18F]F-NB, the bacteria were incubated with 1 μCi/mL of the radiotracer at 37° C. with rapid agitation. Heat-killed (90° C. for 30 min) bacteria were similarly incubated with 2-[^18F]FNB. Aliquots (1 mL) were removed after 5, 30, 60, 90, and 120 min and pelleted by centrifugation (11 000 rpm, 3 min) and washed three times with cold phosphate buffered saline (PBS). Total radioactivity was measured using an automated gamma counter and is reported as the percentage of radioactivity added to the culture. A minimum of five replicates were used for each assay and time point."}, "S. aureus Xen29 [5]": {"test_system": "S. aureus Xen29", "experiment": "In vitro cellular uptake of radiotracer", "format": "cell-based", "conditions": "1 μCi/mL, 120 min incubation, versus heat killed bacteria", "method": "as §2, §3"}},
  "data": [
    {"smiles": "CC(=O)c1ccc(N)cc1F", "note": "[2-fluoro-4-aminoacetophenone, 2-Fluoro-4-aminoacetophenone]", "values": [
      {"measurement": "substrate for DHPS", "setting": "DHPS", "result": "not an efficient substrate for DHPS"}
    ]},
    {"smiles": "O=C(O)c1ccc([N+](=O)[O-])cc1F", "note": "[2-F-NB, 2-fluoro-p-nitrobenzoate]", "values": [
      {"measurement": "kcat", "setting": "S. aureus NfsB", "result": "12.4 ± 1.6", "unit": "s⁻¹"},
      {"measurement": "rescue of growth in the presence of sulfamethoxazole", "setting": "S. aureus Xen29 [1]", "result": "antagonized the activity of sulfamethoxazole"},
      {"measurement": "MIC of sulfamethoxazole in the presence of 40 μg/mL 2-F-NB", "setting": "S. aureus Xen29 [1]; 40 μg/mL 2-F-NB", "result": 12.5, "unit": "µg/mL"}
    ]},
    {"smiles": "O=C[C@H]([18F])[C@@H](O)[C@H](O)[C@H](O)CO", "note": "[[^18F]FDG, 2-Deoxy-2-[18F]fluoro-D-glucose]", "values": [
      {"measurement": "radioactivity in the infected triceps", "setting": "S. aureus Newman [2]", "result": 0.8, "unit": "% ID/cc"},
      {"measurement": "radioactivity in the inflamed triceps", "setting": "S. aureus Newman [2]; sterile inflammation", "result": 1.2, "unit": "% ID/cc"}
    ]},
    {"smiles": "Nc1ccc(C(=O)O)cc1", "note": "[PABA, p-aminobenzoic acid]", "values": [
      {"measurement": "rescue of growth in the presence of sulfamethoxazole", "setting": "S. aureus Xen29 [1]", "result": "bacterial regrowth in the presence of sulfamethoxazole occurred"}
    ]},
    {"smiles": "Cc1cc(NS(=O)(=O)c2ccc(N)cc2)no1", "note": "[sulfamethoxazole]", "values": [
      {"measurement": "MIC", "setting": "S. aureus Xen29 [1]; Staphylococcus aureus, XEN29, 24 h, M9 media, read-out: MIC of sulfamethoxazole alone", "result": 1.56, "unit": "µg/mL"}
    ]},
    {"smiles": "Nc1ccc(C(=O)O)c(F)c1", "note": "[F-PABA, 2-fluoro-4-aminobenzoic acid]", "values": [
      {"measurement": "rescue of growth in the presence of sulfamethoxazole", "setting": "S. aureus Xen29 [1]", "result": "rescued bacterial growth in a concentration-dependent manner"},
      {"measurement": "MIC of sulfamethoxazole in the presence of 0.8 μg/mL F-PABA", "setting": "S. aureus Xen29 [1]; 0.8 μg/mL F-PABA", "result": 12.5, "unit": "µg/mL"},
      {"measurement": "increase of sulfamethoxazole MIC by 0.8 μg/mL F-PABA", "setting": "S. aureus Xen29 [1]; 0.8 μg/mL F-PABA", "result": 8, "unit": "fold"},
      {"measurement": "MIC of sulfamethoxazole in the presence of 4 μg/mL F-PABA", "setting": "S. aureus Xen29 [1]; 4 μg/mL F-PABA", "result": "over 100 μg/mL"},
      {"measurement": "MIC", "setting": "bacterial cells", "result": "> 100", "unit": "µg/mL"},
      {"measurement": "toxicity to bacterial or mammalian cells", "setting": "bacterial cells", "result": "not toxic to either bacterial or mammalian cells"}
    ]},
    {"smiles": "O=C(O)c1ccc([N+](=O)[O-])cc1[18F]", "note": "[2-[^18F]F-NB, 2-[^18F]F-4-nitrobenzoate]", "values": [
      {"measurement": "signal at the infection site versus site of sterile inflammation", "setting": "S. aureus Xen29 [3]; 3 h post injection, ROI analysis", "result": 17, "unit": "fold"},
      {"measurement": "localisation of radioactive signal", "setting": "S. aureus Xen29 [3]; 180 min post tracer injection", "result": "localized at the site of infection"},
      {"measurement": "uptake of radiotracer by live bacteria", "setting": "S. aureus Newman [4]", "result": "Time dependent uptake"},
      {"measurement": "uptake of radiotracer by live bacteria", "setting": "S. aureus Xen29 [5]", "result": "Time dependent uptake"}
    ]},
    {"smiles": "CC(=O)c1ccc([N+](=O)[O-])cc1F", "note": "[2-F-NAP, 2-fluoro-4-nitroacetophenone]", "values": [
      {"measurement": "rescue of growth in the presence of sulfamethoxazole", "setting": "S. aureus Xen29 [1]", "result": "unable to rescue growth"}
    ]},
    {"smiles": "CCOC(=O)c1ccc([N+](=O)[O-])cc1F", "note": "[2-F-ENB, Ethyl 2-fluoro-4-nitrobenzoate]", "values": [
      {"measurement": "kcat", "setting": "S. aureus NfsB", "result": "16.1 ± 1.7", "unit": "s⁻¹"}
    ]}
  ]
}
